Experimental data published in PMC9292235, “Pharmacokinetics and Metabolism of Ziritaxestat (GLPG1690) in Healthy Male Volunteers Following Intravenous and Oral Administration” (Clinical Pharmacology in Drug Development, 2021).
Entries after “also recorded” stand apart in the source; their conditions may differ.

Legend:
[1] = Metabolite profiling and identification in plasma, urine and feces; assay type: in vivo, human; conditions: for Mean Feces Region of Interest: components of one region share its value
Description: (§1) Whole blood and plasma samples for total radioactivity and plasma sample concentrations of ziritaxestat were collected before dosing and at 0, 0.25, 0.5, 1, 1.5, 2, 3, 4, 6, 8, 10, 24, 48, 72, 96, 120, 144, 168, 192, and 216 hours after dosing. Plasma samples for metabolite identification and quantification were collected before dosing and at 1, 3, 6, 24, 48, 72, 96, and 144 hours after dosing. Urine and fecal samples for total radioactivity, metabolite identification, and quantification were collected before dosing through to 216 hours after dosing. Structural identification was attempted on any radioactive component that represented ≥10% of the circulating radioactivity in plasma or that accounted for >10% of the dose in ≥1 fecal and urine samples.

[2] = Part 1 absolute bioavailability: plasma PK after oral 600 mg ziritaxestat and 15-minute IV infusion of 100 μg 14C-ziritaxestat microtracer; assay type: in vivo, human; conditions: for F AUCt (absolute bioavailability) / F AUC∞ (absolute bioavailability): oral 600 mg vs IV 100 μg 14C-ziritaxestat; for F AUCt (absolute bioavailability): dose-normalized AUCt; for F AUC∞ (absolute bioavailability): dose-normalized AUC∞
Description: Part 1 of the study was designed to assess the absolute bioavailability of ziritaxestat. An IV microtracer, a well‐established technique, was used.[21], [22] This design involved a 15‐minute infusion of a subtherapeutic 100‐μg IV ziritaxestat dose labeled with a microtracer (≤1000 nCi) of ^14C radioactivity, dosed at an anticipated time to reach maximum plasma concentration (tmax) of a preceding unlabeled therapeutic (600‐mg) oral dose (administered as three 200‐mg film‐coated tablets). The low‐dose IV formulation means that nonclinical local tolerability and IV toxicology studies can generally be avoided,[21], [22] which can be preferable when developing a single, fit‐for‐purpose IV formulation. Administering the IV microdose at tmax of the unlabeled therapeutic (600‐mg) oral dose of ziritaxestat ensured that the PK of the microdose remained representative of the therapeutic dose.
Given the low (microgram) levels of ziritaxestat expected in plasma, liquid chromatography–accelerated mass spectrometry (LC‐AMS) was used to quantify levels of ^14C‐ziritaxestat, whereas accelerated mass spectrometry (AMS) was used to quantify total radioactivity following the IV dose, achieving a lower limit of quantification (LLOQ) of 0.110 ng eq/mL and 0.0069 ng eq/mL, respectively. Concentrations of unlabeled parent in plasma were measured using liquid chromatography with tandem mass spectrometry (LC‐MS/MS), with an LLOQ of 1.00 ng/mL.
Subjects were admitted to the clinic on day –1 (the evening before dosing) and remained onsite until 72 hours after dosing. On the morning of day 1, 30 minutes after the start of a standard breakfast, subjects received a single oral dose of 600‐mg ziritaxestat, followed 3.25 hours later by a 15‐minute IV infusion of 100 μg of ^14C‐ziritaxestat. Plasma samples for ziritaxestat concentrations were collected before dosing and at 0.25, 0.5, 1, 1.5, 2, 3, 3.25, 4, 5, 6, 8, 10, 12, 24, 48, and 72 hours after the oral dose. In addition, plasma samples for ^14C‐ziritaxestat, total radioactivity, and metabolite profiling were collected at 3.25, 3.33, 3.5, 3.75, 4, 4.25, 4.75, 5.25, 6, 7, 8, 10, 12, 24, 48, and 72 hours after the oral dose.
(§2) Concentrations of ziritaxestat in human lithium heparin plasma samples were determined for both study parts by using an LC‐MS/MS method validated according to the requirements of the US Food and Drug Administration's Guidance for Industry and the European Medicines Agency's guidance on bioanalytical methods. The method involved isolating ziritaxestat and ziritaxestat‐d8 (internal standard) from 20 μL of human lithium heparin plasma by solid‐phase extraction performed on a CUBCX1 100‐mg 1‐mL cartridge (Screening Devices, Amersfoort, Netherlands). The extract sample was then evaporated to dryness under a stream of nitrogen at +50°C. The residue was reconstituted with 0.3 mL of a mixture of 25% acetonitrile in purified water containing 0.01% of ammonium hydroxide. Ten microliters of the clear supernatant were injected into the high‐performance liquid chromatography system (Shimadzu, Kyoto, Japan), operating in isocratic elution mode. Chromatographic separation was performed on an XBridge C18 column (100 × 4.6 mm, 3.5 μm; Waters Corp., Milford, Massachusetts). The aqueous mobile phase consisted of a mixture of 46.75% acetonitrile in purified water containing 0.02% of ammonium hydroxide. An API 4000 LC‐MS/MS system (SCIEX, Toronto, Canada) equipped with a TurboIonSpray probe operating in multiple‐reaction monitoring mode in positive mode was used for quantification. The precursor‐to‐product ion pairs at the mass‐to‐charge ratio were 589 to 256 and 597 to 264 for ziritaxestat and its internal standard, respectively.
Total radioactivity plasma concentrations for part 1 were determined using AMS analysis on a 1‐MV multielement accelerated mass spectrometer, model 4110 Bo (High Voltage Engineering Europa, Amersfoort, the Netherlands). […]

[3] = Part 2: plasma and whole blood PK after a single oral 600-mg dose of 14C-ziritaxestat; assay type: in vivo, human; conditions: ziritaxestat in plasma, single oral 600 mg 14C-ziritaxestat
Description: Part 2 of the study assessed the mass balance, routes of elimination, and metabolite profile of ziritaxestat following a single, oral 600‐mg dose (administered as two 300‐mg active pharmaceutical ingredients‐in‐capsule) of ^14C‐ziritaxestat.
Subjects were admitted on the evening before dosing (day –1 of part 2), allowing a minimum 7‐day washout in oral drug administration between parts 1 and 2. On the morning of day 1, subjects received a single oral dose of ^14C‐ziritaxestat, equivalent to 600 mg of ziritaxestat. […] Subjects stayed in the clinical study center no longer than day 10 (216 hours after dosing).
as §1
Total radioactivity was measured via liquid scintillation counting, achieving an LLOQ of 306 ng eq/mL (plasma), 216 ng eq/mL (whole blood), 17 ng eq/g (urine), and 161 ng eq/g (feces). Concentrations of parent in plasma were measured using LC‐MS/MS, with an LLOQ of 1.00 ng/mL.
as §2
PK analysis was performed using standard noncompartmental methods (Phoenix WinNonlin version 9.4; Pharsight, Certara, Princeton, New Jersey). […] In part 2, the following mass balance parameters were determined: cumulative amount of total radioactivity excreted in urine up to t, cumulative amount of total radioactivity excreted in feces up to t, amount of total radioactivity excreted in urine as a percentage of administered radioactivity, and amount of total radioactivity excreted in feces as a percentage of administered radioactivity. AUC was calculated by the linear up‐logarithmic down‐trapezoid rule, CL was calculated as dose/AUC, Vd(area) was calculated as CL/λz, and F was calculated as dose‐normalized ziritaxestat oral AUC/^14C‐ziritaxestat IV AUC.

[4] = Estimation of oral bioavailability fractions (fa, fg, fh); assay type: in vivo, human
Description: Contribution to clearance from nonhepatic routes was assumed to be minimal. fg was estimated assuming Fg=F/Fa/Fh .

[5] = Safety assessments (AEs, laboratory tests, vital signs, ECG); assay type: in vivo, human; conditions: parts 1 and 2
Description: Safety assessments included adverse events (AEs), clinical laboratory tests (clinical chemistry, hematology, urinalysis), vital signs, 12‐lead electrocardiograms (ECGs), and physical examinations. AEs were recorded from the first dose until study discharge, and at the follow‐up call. Any adverse experiences recorded between the time of informed consent and the first dose were recorded with the medical history. AEs and medications were coded using the Medical Dictionary for Regulatory Activities version 21.1.

CYP2C8 = conditions: background data in introduction, no reference given, cited from earlier work
CYP3A4/5 = conditions: human liver microsomes and probe substrates; weak inhibition; background data in introduction, no reference given; read-out: half maximal inhibitory concentration; cited from earlier work
CYP3A4 [6] = conditions: human recombinant CYP, background data in introduction, no reference given, cited from earlier work
CYP3A4 [7] = conditions: 0.1 to 30 μM incubated with human hepatocytes; background data in introduction, no reference given; cited from earlier work
CYP1A2 = conditions: 0.1 to 30 μM incubated with human hepatocytes; background data in introduction, no reference given; cited from earlier work
[8] = feces, single oral 600 mg 14C-ziritaxestat
[9] = human, ziritaxestat in plasma, oral 600 mg, n = 6, mean (SD)
[10] = mean (SD), listed as ziritaxestat

CCc1nc2c(C)cc(N3CCN(CC(=O)O)CC3)cn2c1N(C)c1nc(-c2ccc(F)cc2)c(C#N)s1 [M533]
Mean Feces Region of Interest [1, 8]: 25.3%

CCc1nc2c(C)cc(N3CCN(CC(=O)N4CC(O)C4)CC3)cn2c1N(C)c1nc(-c2ccc(F)cc2)c(C#N)s1 [Ziritaxestat]
AUC(0-inf) [2, 9]: 40000 ng·h/mL | AUC(0-t) [2, 9]: 40000 ng·h/mL | Cmax [2, 9]: 8400 ng/mL | half-life [2, 9]: 7 h | Tmax ([2]; human, ziritaxestat in plasma, oral 600 mg, n = 6, median (range)): 3.25 h | F AUCt (absolute bioavailability) ([2]; mean (SD)): 54.4 (5.2) % | F AUCt (absolute bioavailability) [2, 10]: 54% | F AUC∞ (absolute bioavailability) ([2]; mean (SD)): 51.1 (4.8) % | F AUC∞ (absolute bioavailability) [2, 10]: 51% | CL/F ([2]; ziritaxestat in plasma, oral 600 mg, n = 6, mean (SD)): 16.3 (4.6) L/h | AUC(0-inf) ([3]; human, n = 5, mean (SD)): 50500 ng·h/mL | half-life ([3]; human, n = 5, mean (SD)): 10.6 h | AUC(0-t) ([3]; human, n = 6, mean (SD)): 49100 ng·h/mL | Cmax ([3]; human, n = 6, mean (SD)): 10700 ng/mL | AUC ([3]; human, n = 6, mean (SD), read-out: AUC24): 47900 ng·h/mL | Tmax ([3]; human, n = 6, median (range)): 1.75 h | CL/F ([3]; n = 5, mean (SD)): 13.2 (4.6) [n = 5] ^c L/h | Parent as share of total radioactivity (drug-related material) recovered in feces ([1]; feces, oral 600 mg 14C-ziritaxestat): 17.6% | Mean Feces Region of Interest [1, 8]: 17.6% | Share of circulating radioactivity in plasma ([1]; plasma, metabolite profile / mass spectrometry analysis, oral 600 mg 14C-ziritaxestat): 76% | Mean Plasma Region of Interest ([1]; plasma, single oral 600 mg 14C-ziritaxestat): 76.2 | fg (fraction of drug surviving gut metabolism) ([4]; Fg = F/Fa/Fh): 69% | fh (fraction of drug surviving hepatic elimination) ([4]; Fh = 1 - Eh, Eh = ClIV/Qh, Qh 1450 mL/min): 91% | Hepatic extraction ratio (first-pass loss) ([4]; human, in vivo): 9% | frem (fraction of drug remaining to be eliminated) ([4]; human, in vivo): 14% | Effects on laboratory, vital signs, or ECG parameters [5]: no clinically meaningful effects | Intensity of TEAEs [5]: mild | Relation of TEAEs to treatment as assessed by the investigator [5]: not considered to be related to the study drug; also recorded: not treatment related | Serious AEs or AEs leading to discontinuation or interruption of dosing ([5]; healthy male subjects): no serious AEs or AEs leading to discontinuation or interruption of dosing | Number of treatment-emergent AEs (TEAEs) ([5]; reported in 5 subjects): 7 | half maximal inhibitory concentration fold shift (CYP2C8; CYP2C8-mediated metabolism, preincubation with ziritaxestat in the absence and presence of NADP, time-dependent inhibition): 2.49 | IC50 (CYP2C8; human liver microsomes and probe substrates, weak inhibition, read-out: half maximal inhibitory concentration): 2100 nM | IC50 (CYP3A4/5): 3700 nM | Enzyme primarily responsible for metabolism (CYP3A4 [6]): primarily metabolized by CYP3A4 | Contribution to metabolism from other phase 1 enzymes (maximum) (CYP3A4 [6]; enzymes other than CYP3A4): ≤ 2.1% | CYP3A4 messenger RNA expression (induction potential) (CYP3A4 [7]): Increases in messenger RNA expression | CYP1A2 messenger RNA expression (induction potential) (CYP1A2): Increases in messenger RNA expression

CCc1nc2c(C)cc(N3CCN(CC(=O)NCC(=O)O)CC3)cn2c1N(C)c1nc(-c2ccc(F)cc2)c(C#N)s1 [M590]
Mean Feces Region of Interest [1, 8]: 25.3%
